Measured values as given in ChEMBL document CHEMBL1152045, “Synthesis of the pyrimidine analog of 4,5,6,7-tetrahydroimidazo[4,5,1-jk][1,4]benzodiazepin-2(1H)one (TIBO) potential for HIV-1 inhibition” (Bioorg Med Chem Lett, 1991).

Columns and labels:
[1] = test system: MT4; assay: Compound was tested for its anti HIV-1 activity in MT-4 cells.; assay type: functional, cell-based; settings: Homo sapiens
[2] = test system: MT4; assay: Compound was tested for its anti HIV-1 activity in MT-4 cells up to 2 uM concentration; No activity against HIV-l virus replication.; assay type: functional, cell-based, Homo sapiens

Compound	IC50 [1] [µM]	IC50 [2]
CC(C)=CCN1Cc2cc(Cl)cc3[nH]c(=S)n(c23)C[C@@H]1C	0.042	
CC(C)=CCN1Cc2ncnc3nc(O)n(c23)CC1C (configuration not stated)		Not Active
